From patent US20210275488A1, “NOVEL COMPOUND ISOLATED FROM CERVI PARVUM CORNU, AND PHARMACEUTICAL USES THEREOF” (FNG RESEARCH CO., LTD., priority 2018, published 2021)

What was measured:
[1] = tested on: neutropenia induced by an anticancer agent (gemcitabine); assay: Mouse experiment of antineoplastic chemotherapy-induced neutropenia (gemcitabine); type: in vivo, C57BL/6 mice; settings: for reduction in the number of neutrophils: 3 weeks, relative to normal group; for Number of neutrophils: Gemcitabine (50 mg/kg) i.p. daily 3 weeks, compound 50 mg/kg oral daily 3 weeks, neutrophils in 1 μl of blood
Experimental: 50 mg/kg of gemcitabine, used as an anticancer agent, was injected intraperitoneally into C57BL/6 mice every day for 3 weeks and used as a control group. 50 mg/kg of the compounds of Example 1, Example 2, and Comparative Example 1 were orally administered for 3 weeks every day, and after 3 weeks, the number of neutrophils in 1 μl of blood was measured using an automatic blood sample analyzer (Auto Hematology Analyzer BC-5900, Mindray), and the results are shown in Table 7 and FIG. 11 below.

[2] = tested on: IL-1β; assay: Inhibition of IL-1β production in LPS-induced mouse peritoneal macrophages (ELISA); type: cell-based; settings: LPS (1 μg/ml), 12 hours
Experimental: (§1) As experimental animals, 8-week-old C57BL/6 mice were bred for 7 days under the environment of a temperature of 22±2° C., a relative humidity of 65±5% and a 12-hour cycle in light and dark, and then adapted to the laboratory environment, and then used for the experiment. Solid feed (Samyang feed) and water were sufficiently supplied.
(§2) HBSS was intraperitoneally injected into a mouse to extract macrophages, which was centrifuged at 3,000 rpm for 5 minutes, and then 100 units/mL of penicillin/streptomycin was added to DMEM medium with 10% fetal bovine serum (FBS), and peritoneal macrophage was isolated. It was incubated in a 37° C., 5% CO2 incubator for 24 hours, and then used in the experiment.
(§3) The secretion amount of IL-6, IL-1β and TNF-α secreted from mouse peritoneal macrophages induced by lipopolysaccharide (LPS), which is an inflammatory response inducer, was measured by an ELISA assay (Millipore, USA) to thereby evaluate the anti-inflammatory activity.
(§4) In order to obtain a cell culture solution, mouse peritoneal macrophages were adjusted to 3×10^5 cells/mL, inoculated into a 96-well plate, cultured for 24 hours, and then the compounds of Example 1 (PCA glycerol), Example 2 (CPA glycerol) and Comparative Example (PLA glycerol) were treated at different concentrations (10 μg/ml, 100 μg/ml, and 200 μg/ml, respectively), and LPS (1 μg/ml) was treated. The normal group was untreated, and the control group was treated with only LPS (1 μg/ml) on peritoneal macrophages. After culturing for 12 hours, a supernatant was obtained by centrifugation. ELISA was run in microplates coated with anti-mouse IL-6, IL-1β and TNF-α as the capture antibody. Then, the cells were washed with phosphate buffered saline (PBST) containing 0.05% Tween 20, blocked with 10% FBS, and washed with PBST. The cell culture supernatant was dispensed into the wells, and reacted at room temperature for 2 hours. After the reaction, washing was performed with PBST and dilute biotinylated anti-mouse IL-6, IL-1β and TNF-α detection antibody and streptavidin-horseradish peroxydase conjugate were dispensed and reacted at room temperature for 1 hour. Then, washing was performed again with PBST, and an OPD solution was added, and then the mixture was subjected to dark reaction at room temperature for 30 minutes. After the reaction was terminated with 2N H2504, the absorbance was measured at 450 nm using a microplate reader.

[3] = tested on: peritoneal macrophages; assay: Evaluation of cytotoxicity using MTT assay; type: cell-based, C57BL/6 mice; settings: 24 hours
Experimental: as §1, §2
100 uL of the cultured peritoneal macrophages were dispensed into a 96-well plate at 3×10^5 cells/well and cultured overnight. After removing the medium, the peritoneal macrophage was treated with the compounds of Example 1 (PCA glycerol) and Example 2 (CPA glycerol) at different concentrations (10 μg/ml, 100 μg/ml, and 200 μg/ml, respectively), and then incubated for 24 hours in a 37° C., 5% CO2 incubator. After incubation, the medium was removed, 40 uL of MTT (5 mg/mL) reagent was dispensed and incubated for 4 hours in a CO2 incubator, the MTT reagent was removed, and 600 uL of DMSO reagent was dispensed, and then left at room temperature for 30 minutes. Then, the absorbance (OD) was measured at 540 nm with a microplate reader.

[4] = tested on: TNF-α; assay: Inhibition of TNF-α production in LPS-induced mouse peritoneal macrophages (ELISA); type: cell-based; settings: LPS (1 μg/ml), 12 hours
Experimental: as §1, §2, §3, §4

[5] = tested on: IL-6; assay: Inhibition of IL-6 production in LPS-induced mouse peritoneal macrophages (ELISA); type: cell-based; settings: LPS (1 μg/ml), 12 hours
Experimental: as §1, §2, §3, §4

[6] = tested on: NO production; assay: Inhibition of NO production in LPS-treated peritoneal macrophages (Griess reagent); type: cell-based, C57BL/6 mice; settings: 24 hours, LPS control group = 100
Experimental: as §1, §2
The cultured peritoneal macrophages were suspended in DMEM containing 10% FBS, dispensed into a 96-well plate at 5×10^5 cells/well and incubated for 24 hours in a 37° C., 5% CO2 incubator, and replaced with new DMEM medium. Then, the peritoneal macrophages were treated with each of the compounds of Examples 1 and 2 and Comparative Example at different concentrations (10 μg/ml, 100 μg/ml, and 200 μg/ml, respectively), and LPS (1 μg/ml) was treated. Then, the cells were incubated for 24 hours. After incubation, the supernatant was separated, centrifuged at 3000 rpm for 5 minutes, and the separated supernatant was dispensed onto a new microplate. The normal group was untreated, and the control group was treated with only LPS (1 μg/ml) on the peritoneal macrophages.
The same amount of Griess reagent (1% sulfanilamide, 0.1% naphthyl-ethylenediamine dihydrochloride, 2% phosphoric acid) was treated, and reacted at room temperature for 10 minutes. After the culture solution was reacted with the Griess solution for […], the absorbance (OD) was measured at 540 nm.

[7] = tested on: neutropenia induced by an anticancer agent (tamoxifen); assay: Mouse experiment of antineoplastic chemotherapy-induced neutropenia (tamoxifen); type: in vivo, C57BL/6 mice; settings: for Number of neutrophils: Tamoxifen (50 mg/kg) i.p. daily 3 weeks, compound 50 mg/kg oral daily 3 weeks, neutrophils in 1 μl of blood; for decrease in the number of neutrophils: tamoxifen 50 mg/kg plus compound 50 mg/kg oral
Experimental: 50 mg/kg of Tamoxifen, used as an anticancer agent, was intraperitoneally injected into C57BL/6 mice every day for 3 weeks and used as a control group, and 50 mg/kg of the compounds of Example 1, Example 2, and Comparative Example 1 were orally administered for 3 weeks every day, and after 3 weeks, the number of neutrophils in 1 μl of blood was measured using an automatic blood sample analyzer (Auto Hematology Analyzer BC-5900, Mindray), and the results are shown in Table 8 and FIG. 12 below.

[8] = gemcitabine 50 mg/kg plus compound 50 mg/kg oral
[9] = 3 weeks, relative to normal group

Row | Molecule | IL-1β Production amount ([2]; compound 10 μg/ml) [pg/mL] | IL-1β Production amount ([2]; compound 100 μg/ml) [pg/mL] | IL-1β Production amount ([2]; compound 200 μg/ml) [pg/mL] | Cell viability (%) ([3]; 10 μg/ml) | Cell viability (%) ([3]; 100 μg/ml) | Cell viability (%) ([3]; 200 μg/ml) | TNF-α production amount ([4]; compound 10 μg/ml) [pg/mL] | TNF-α production amount ([4]; compound 100 μg/ml) [pg/mL] | TNF-α production amount ([4]; compound 200 μg/ml) [pg/mL] | Number of neutrophils [1] [µL⁻¹] | reduction in the number of neutrophils [1, 8] | IL-6 production amount ([5]; compound 10 μg/ml) [pg/mL] | IL-6 production amount ([5]; compound 100 μg/ml) [pg/mL] | IL-6 production amount ([5]; compound 200 μg/ml) [pg/mL] | NO production rate (%) ([6]; compound 10 μg/ml) | NO production rate (%) ([6]; compound 100 μg/ml) | NO production rate (%) ([6]; compound 200 μg/ml) | Number of neutrophils [7] [µL⁻¹] | decrease in the number of neutrophils [7, 9] | other results
1 | Nc1ccn([C@@H]2O[C@H](CO)[C@@H](O)C2(F)F)c(=O)n1 [gemcitabine, reference compound] | – | – | – | – | – | – | – | – | – | – | – | – | – | – | – | – | – | – | – | reduction in the number of neutrophils ([1]; mice treated with gemcitabine 50 mg/kg i.p. alone (control group)): about 45%
2 | 1-Palmitoyl-2-Conjugated-Linoleoyl-3-Acetyl Glycerol [Example 1] | 40 ± 2.9 | 28 ± 2.3 | 26 ± 2.8 | 100 ± 2.1 | 98.3 ± 1.9 | 98.1 ± 1.2 | 170 ± 8 | 153 ± 11 | 121 ± 10 | 1198 ± 43 | about 2% | 321 ± 22 | 225 ± 23 | 180 ± 25 | 52 ± 3 | 43 ± 3 | 37 ± 4 | 1146 ± 63 | about 6.3% | –
3 | CCCCC/C=C\C/C=C\CCCCCCCC(=O)OC(COC(C)=O)COC(=O)CCCCCCCCCCCCCCC (centres unmarked) [Comparative Example, 1-Palmitoyl-2-Linoleoyl-3-Acetyl Glycerol, reference compound] | 43 ± 2.2 | 31 ± 2.4 | 31 ± 3.1 | – | – | – | 184 ± 21 | 155 ± 12 | 137 ± 7 | 1047 ± 42 | 14.5% | 364 ± 16 | 251 ± 24 | 203 ± 25 | 56 ± 3 | 45 ± 2 | 41 ± 3 | 1066 ± 88 | 12.9% | –
4 | CC/C(=C(\c1ccccc1)c1ccc(OCCN(C)C)cc1)c1ccccc1 [tamoxifen, Tamoxifen, reference compound] | – | – | – | – | – | – | – | – | – | – | – | – | – | – | – | – | – | – | – | decrease in number of neutrophils ([7]; mice treated with tamoxifen 50 mg/kg i.p. alone (control group), 3 weeks, relative to normal group): about 37%
5 | 1-Conjugated-Linoeoyl-2-Palmitoyl-3-Acetyl Glycerol [Example 2] | 40 ± 1.7 | 32 ± 2.4 | 28 ± 1.7 | 100 ± 0.9 | 98.3 ± 1.7 | 98.0 ± 2.8 | 175 ± 7 | 151 ± 10 | 123 ± 7 | 1142 ± 62 | 6.7% | 325 ± 13 | 234 ± 20 | 179 ± 17 | 50 ± 2 | 44 ± 3 | 34 ± 1 | 1124 ± 57 | about 8.2% | –
